The values below come from PubChem BioAssay (NCI).

Test systems include SR leukemia; K-562 leukemia; HT29 colon; HCC-2998 colon; SW-620 colon; MDA-MB-435; ACHN renal; SN12C renal; IGROV1 ovarian; OVCAR-4 ovarian.
Holding throughout (assay): NCI anticancer screen, dose series, 48 h

SMILES strings stand for the structures. “And” between values parts separate entries of the source, which are not always exact repeats. Equal entries are not always repeated.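 Where inhibition never reached the appropriate level, the endpoint shown equals the highest concentration tested. Otherwise, values were interpolated linearly from a five-concentration, 48-hour dose response in 96-well plates. GI50 = concentration required for 50% inhibition of growth. TGI marks complete inhibition of growth.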 Some results are limits rather than exact numbers.

On to `COc1cc2c(cc1OCCCN1CCN(CCCOc3cc4c(cc3OC)C(=O)N3C[C@H](F)C[C@H]3C=N4)CC1)N=C[C@@H]1C[C@@H](F)CN1C2=O`, for which the GI50 in the experiment with SR leukemia is below 0.021 µM; in the experiment with K-562 leukemia it was 0.0269 µM; with HT29 colon, 0.148 µM; in the experiment with HCC-2998 colon it was 0.121 µM; with SW-620 colon, 0.0746 µM; in the experiment with MDA-MB-435, 0.105 µM. Also, the GI50 in the experiment with ACHN renal is 0.102 µM; in the experiment with SN12C renal, 0.0139 µM; in the experiment with IGROV1 ovarian, 0.0696 µM; in the experiment on OVCAR-4 ovarian, 0.386 µM. The TGI in the experiment on SR leukemia is 0.521 µM; in the experiment on K-562 leukemia, 3.66 µM; in the experiment with HT29 colon, above 37.2 µM; in the experiment on HCC-2998 colon, 0.357 µM; in the experiment with SW-620 colon, 10.4 µM; in the experiment with MDA-MB-435 it was 0.288 µM. The TGI with ACHN renal was determined as 0.945 µM; in the experiment on SN12C renal it was 12.2 µM; in the experiment on IGROV1 ovarian, 1.88 µM; in the experiment on OVCAR-4 ovarian, 22.6 µM.

For the compound `COc1cc(/C=C/C(=O)c2cccc(-n3cc(-c4ccccc4)[nH]c3=O)c2)ccc1O`, the GI50 in the experiment with SR leukemia was 1.65 µM; in the experiment on K-562 leukemia, 2.23 µM; with HT29 colon, 3.77 µM; in the experiment on HCC-2998 colon, 1.92 µM; in the experiment with SW-620 colon, 2.48 µM; in the experiment with MDA-MB-435, 2.58 µM. The GI50 in the experiment with ACHN renal is 3.46 µM; with SN12C renal, 3.02 µM; in the experiment with IGROV1 ovarian it was 2.22 µM; in the experiment with OVCAR-4 ovarian it was 3.3 µM. Also, the TGI in the experiment on SR leukemia is above 100 µM; in the experiment with K-562 leukemia, 9.29 µM; in the experiment with HT29 colon, above 100 µM; in the experiment with HCC-2998 colon it was 4.21 µM; in the experiment on SW-620 colon it was 6.3 µM; with MDA-MB-435, 8.91 µM. Further, the TGI was 16.3 µM in the experiment with ACHN renal, 12 µM with SN12C renal, 7.28 µM in the experiment with IGROV1 ovarian and above 23 µM in the experiment on OVCAR-4 ovarian.

Consider `O=NN(CC(=O)NNc1ccccc1)CC(=O)NNc1ccccc1`, for which the GI50 with SR leukemia is above 25.6 µM; in the experiment with K-562 leukemia it was 0.579 µM; in the experiment with HT29 colon, above 100 µM; in the experiment on HCC-2998 colon it was 4.89 µM; with SW-620 colon, 4.21 µM; in the experiment with MDA-MB-435, above 20.1 µM. In addition, the results for the GI50 in the experiment with SN12C renal and in the experiment with IGROV1 ovarian were above 100 µM and above 64 µM, respectively. The TGI with SR leukemia, in the experiment on K-562 leukemia, in the experiment with HT29 colon, in the experiment on HCC-2998 colon, in the experiment on SW-620 colon and with MDA-MB-435 was above 100 µM throughout. In addition, the TGI in the experiment on ACHN renal, with SN12C renal, in the experiment on IGROV1 ovarian and in the experiment with OVCAR-4 ovarian was above 100 µM each time.

As for `N#C/C(=C\c1ccccn1)c1nc2ccccc2o1`, the GI50 in the experiment on SR leukemia was 20 µM; in the experiment on K-562 leukemia, 28.6 µM; in the experiment on HT29 colon it was 30.6 µM; in the experiment on HCC-2998 colon, 25.1 µM; in the experiment with SW-620 colon it was 17.5 µM; with MDA-MB-435 it was 34.6 µM. Moreover, the GI50 was 19.2 µM in the experiment on ACHN renal, 32.5 µM in the experiment with SN12C renal, 18.4 µM in the experiment on IGROV1 ovarian and 17.3 µM in the experiment with OVCAR-4 ovarian. Also, the TGI with SR leukemia was 78.4 µM; in the experiment on K-562 leukemia it was above 100 µM; in the experiment on HT29 colon, 95.2 µM; with HCC-2998 colon it was 50.2 µM; with SW-620 colon it was 37.1 µM; in the experiment with MDA-MB-435 it was above 100 µM. In addition, the TGI in the experiment with ACHN renal was 46.6 µM; in the experiment with SN12C renal it was above 100 µM; in the experiment on IGROV1 ovarian it was above 100 µM; in the experiment on OVCAR-4 ovarian, 34.2 µM.

On to `O=C1/C(=C/c2ccccc2)CN(C(=O)/C=C/c2ccccc2)C/C1=C\c1ccccc1`, for which the TGI with SR leukemia was 4.64 µM; in the experiment with K-562 leukemia, above 43.3 µM; in the experiment with HT29 colon, 11.8 µM; in the experiment with HCC-2998 colon it was 14.2 µM; in the experiment with SW-620 colon, 5.28 µM; in the experiment on MDA-MB-435, 3.74 µM. Besides, the TGI was 38.5 µM in the experiment on ACHN renal, 16 µM in the experiment on SN12C renal, 22.2 µM in the experiment on IGROV1 ovarian and 24.7 µM in the experiment with OVCAR-4 ovarian.

Regarding `Nc1ccccc1SC(CC(=O)c1ccccc1)c1c(Cl)cccc1Cl` (stereo not drawn), the GI50 in the experiment on SR leukemia was 1.45 µM; in the experiment with K-562 leukemia, 2.76 µM; in the experiment with HT29 colon, 2.29 µM; with HCC-2998 colon, 2.61 µM; in the experiment with SW-620 colon, 2.28 µM; with MDA-MB-435 it was 2.87 µM. The GI50 in the experiment with ACHN renal was 2.16 µM; in the experiment with SN12C renal, 2.94 µM; with IGROV1 ovarian, 2.74 µM; in the experiment with OVCAR-4 ovarian, 4.84 µM. Further, the TGI with SR leukemia was determined as 5.79 µM; with K-562 leukemia it was 7.69 µM; in the experiment on HT29 colon it was 5.03 µM; in the experiment with HCC-2998 colon, 5.73 µM; in the experiment on SW-620 colon it was 5.21 µM; in the experiment with MDA-MB-435, 10.7 µM. The TGI in the experiment with ACHN renal was determined as 5.6 µM; with SN12C renal, 11.5 µM; in the experiment with IGROV1 ovarian, 8.62 µM; with OVCAR-4 ovarian it was 18.4 µM.

For the compound `COc1ccc(C(=O)c2no[n+]([O-])c2C(=O)c2ccc(OC)cc2)cc1`, the GI50 in the experiment on SR leukemia is 0.726 µM; with K-562 leukemia, 2.36 µM; in the experiment with HT29 colon, 2.32 µM; with HCC-2998 colon, 17.5 µM; in the experiment on SW-620 colon, 1.89 µM; with MDA-MB-435 it was 6.72 µM. Also, the GI50 was 1.9 µM in the experiment with ACHN renal, 9.06 µM in the experiment with SN12C renal, 2.3 µM in the experiment with IGROV1 ovarian and 2.36 µM with OVCAR-4 ovarian. The TGI with SR leukemia came out at 3.22 µM; in the experiment with K-562 leukemia, 7.17 µM; in the experiment with HCC-2998 colon it was 31.6 µM; with SW-620 colon it was 3.42 µM; in the experiment with MDA-MB-435, 22.9 µM; with ACHN renal, 3.4 µM. In addition, the TGI in the experiment on SN12C renal amounted to 22.1 µM; in the experiment with IGROV1 ovarian, 5.53 µM; with OVCAR-4 ovarian, 6.26 µM.

On to `Cc1nc2sc(C(=O)Nc3cccc4c3OCCO4)c(N)c2cc1C(C)O` (stereo not drawn), for which the GI50 in the experiment on SR leukemia is 1.18 µM; in the experiment on K-562 leukemia it was 1.37 µM; in the experiment with HT29 colon, 2.62 µM; in the experiment on HCC-2998 colon, 13.7 µM; with SW-620 colon it was 3.34 µM; with MDA-MB-435, 0.454 µM. Also, the GI50 is 5.54 µM in the experiment on ACHN renal, 5.65 µM in the experiment on SN12C renal, 4.84 µM in the experiment with IGROV1 ovarian and above 100 µM in the experiment on OVCAR-4 ovarian. Also, the TGI was above 100 µM in the experiment on SR leukemia; above 100 µM in the experiment with K-562 leukemia; above 100 µM in the experiment with HT29 colon; above 100 µM in the experiment with HCC-2998 colon; above 100 µM in the experiment with SW-620 colon; 3.54 µM with MDA-MB-435. Besides, the TGI in the experiment on ACHN renal, in the experiment with SN12C renal, in the experiment on IGROV1 ovarian and in the experiment on OVCAR-4 ovarian was above 100 µM each time.

As for `O=[N+]([O-])c1cc2c(ccc3ccccc32)o1`, the GI50 in the experiment on SR leukemia was 0.346 µM; in the experiment on K-562 leukemia, 0.376 µM; with HT29 colon it was 0.307 µM; in the experiment with HCC-2998 colon it was 0.252 µM; with SW-620 colon it was 0.404 µM; with MDA-MB-435 it was 0.158 µM. The GI50 is 0.147 µM in the experiment with ACHN renal, 0.568 µM with SN12C renal, 0.703 µM in the experiment on IGROV1 ovarian and 1.76 µM with OVCAR-4 ovarian. Besides, the TGI in the experiment on SR leukemia is above 39.9 µM; in the experiment on K-562 leukemia, 9.01 µM; in the experiment on HT29 colon it was 1.8 µM; in the experiment on HCC-2998 colon it was 0.823 µM; with SW-620 colon, 5.91 µM; in the experiment on MDA-MB-435 it was 0.35 µM. The TGI with ACHN renal was 0.48 µM; in the experiment with SN12C renal, 22.7 µM; in the experiment on IGROV1 ovarian it was 5.56 µM; in the experiment with OVCAR-4 ovarian it was 11 µM.

Regarding `CC(C)C[C@H](NC(=O)[C@@H](N)Cc1cccc2ccccc12)B(O)O`, the TGI with SR leukemia was 0.0653 µM; in the experiment on ACHN renal, 50 µM and > 100 µM. Moreover, the GI50 in the experiment with HT29 colon is 0.216 µM; with HCC-2998 colon, 0.021 µM; with SW-620 colon it was 0.231 µM; with MDA-MB-435, 0.114 µM; in the experiment on ACHN renal, below 0.01 µM; in the experiment on SN12C renal it was 1.39 µM. The GI50 in the experiment on IGROV1 ovarian is 0.836 µM; in the experiment on OVCAR-4 ovarian it was 0.0384 µM.

Consider `O=C1c2c[n+](Cc3ccccc3)ccc2-c2nc3ccccc3c3ccnc1c23`, for which the GI50 in the experiment with SR leukemia was 0.066 µM; in the experiment with K-562 leukemia, 0.733 µM; in the experiment on HT29 colon, 0.971 µM; in the experiment with HCC-2998 colon it was 0.609 µM; with SW-620 colon, 0.45 µM; in the experiment on MDA-MB-435, 0.434 µM. In addition, the results for the GI50 in the experiment with ACHN renal, with IGROV1 ovarian and in the experiment on OVCAR-4 ovarian were 0.196 µM, 0.827 µM and 0.468 µM, respectively. Further, the TGI with SR leukemia worked out at 3.6 µM; in the experiment on K-562 leukemia, 7.83 µM; with HT29 colon, 3.46 µM; in the experiment with HCC-2998 colon it was 1.74 µM; in the experiment with SW-620 colon, 3.71 µM; in the experiment with MDA-MB-435, 0.972 µM. The values for the TGI in the experiment on ACHN renal, in the experiment on IGROV1 ovarian and in the experiment on OVCAR-4 ovarian were 33.3 µM, 4.04 µM and 0.92 µM, respectively.

For the compound `Cc1ccc(-c2csc3ncnc(Nc4cccc(O)c4)c23)cc1`, the GI50 with SR leukemia is 15.2 µM; in the experiment with K-562 leukemia it was 5.6 µM; in the experiment on HT29 colon, 39.7 µM; in the experiment with HCC-2998 colon, 17.2 µM; in the experiment on SW-620 colon, 42.4 µM; in the experiment with MDA-MB-435, 16.7 µM. The results for the GI50 with SN12C renal, in the experiment on IGROV1 ovarian and with OVCAR-4 ovarian were 34.1 µM, 17.8 µM and 44.6 µM, respectively. Further, the TGI in the experiment with SR leukemia is 77.5 µM; in the experiment with K-562 leukemia it was above 100 µM; in the experiment on HT29 colon, above 100 µM; in the experiment on HCC-2998 colon, 34.1 µM; with SW-620 colon it was above 100 µM; in the experiment with MDA-MB-435 it was 33.6 µM. In addition, the TGI in the experiment on SN12C renal is above 100 µM; with IGROV1 ovarian, 57.5 µM; in the experiment with OVCAR-4 ovarian, above 100 µM.
